Among the data in patent publication US6124323A, “4-substituted piperidine analogs and their use as subtype selective NMDA receptor antagonists” (Warner-Lambert Company, priority 1998, dated 2000) are IC50 values, retold here.

The structures appear in SMILES notation. Counter-ions that a name gives are not always drawn. Like-named read-outs stand apart in the source and are kept apart here.

Format in all cases: cell-based
In test [1] the target is T1, NMDA receptor subunits 1A/2A (Rattus norvegicus, UniProt P35439+Q00959).
T1 construct: expressed in transfected cells; host or cells: Xenopus laevis oocytes (cRNA injection; clones from Dr. P. H. Seeburg)
The test is described as follows: Electrophysiological assay at NMDA receptor subunits expressed in Xenopus oocytes, 1A/2A. Conditions: glutamate 100 μm and glycine 1-100 μm. The procedure: (§1) Many of the properties of native NMDA receptors are seen in recombinant homomeric NR1 receptors. These properties are altered by the NR2 subunits. Recombinant NMDA receptors expressed in Xenopus oocytes have been studied by voltage-clamp recording, as has developmental and regional expression of the mRNAs encoding NMDA receptor subunits. Electrophysiological assays were utilized to characterize the actions of compounds at NMDA receptors expressed in Xenopus oocytes. The compounds were assayed at four subunit combinations of cloned rat NMDA receptors, corresponding to three putative NMDA receptor subtypes [Moriyoshi, et al. Nature 1991, 354, 31-37; Monyer et al, Science 1992, 256, 1217-1221; Kutsuwada et al, Nature 1992, 358, 36-41; Sugihara et al, Biochem. Biophys Res. Commun. 1992, 185, 826-832].
(§2) Electrophysiological Assays at NMDA Receptor Subunits
(§3) Preparation of RNA. cDNA clones encoding the NR1A, NR2A, NR2B, NR2C and NR2D rat NMDA receptor subtypes were provided by Dr. P. H. Seeburg (see, Moriyoshi et al., Nature (Lond.) 354:31-37 (1991); Kutsuwada et al., Nature (Lond.) 358:36-41 (1992) Monyer et al., Science (Washington, D.C.) 256:1217-1221 (1992); Ikeda et al., FEBS Lett. 313:34-38 (1992); Ishii et al., J. Biol. Chem. 268:2836-2843 (1993) for details of these clones or their mouse homologs). The clones were transformed into appropriate host bacteria and plasmid preparations were made with conventional DNA purification techniques. A sample of each clone was linearized by restriction enzyme digestion and cRNA was synthesized with T3 RNA polymerase. The cRNA was diluted to 400 ng/μl and stored in 1 μl aliquots at -80° C. until injection.
(§4) The Xenopus oocyte expression system. Mature female Xenopus laevis were anaesthetized (20-40 min) using 0.15% 3-aminobenzoic acid ethyl ester (MS-222) and 2-4 ovarian lobes were surgically removed. Oocytes at developmental stages IV-VI (Dumont, J. N., J. Morphol. 136:153-180 (1972)), were dissected from the ovary still surrounded by enveloping ovarian tissues. Follicle-enclosed oocytes were micro-injected with 1:1 mixtures of cRNA:NR1A+NR2A, 2B, 2C or 2D; injecting ~2,5, or 20 ng of RNA encoding each receptor subunit. NR1A encoding cRNA was injected alone at ~20 ng. Oocytes were stored in Barth's medium containing (in mM):NaCl, 88; KCl, 1; CaCl2, 0.41; Ca(NO3)2, 0.33; MgSO4, 0.82 NaHCO3, 2.4; HEPES 5, pH 7.4, with 0.1 mg/ml gentamicin sulphate. While oocytes were still surrounded by enveloping ovarian tissues the Barth's medium was supplemented with 0.1% bovine serum. Oocytes were defolliculated 1-2 days following injections by treatment with collagenase (0.5 mg/ml Sigma Type I for 0.5-1 hr) (Miledi and Woodward, J. Physiol. (Lond.) 416:601-621 (1989)) and subsequently stored in serum-free medium.
(§5) Electrical recordings were made using a conventional two-electrode voltage clamp (Dagan TEV-200) over periods ranging between 3-21 days following injection. (Woodward et al., Mol. Pharmacol. 41: 89-103 (1992)). Oocytes were placed in a 0.1 ml recording chamber continuously perfused (5-15 ml min^-1 ) with frog Ringer's solution containing (in mM):NaCl, 115; KCl, 2; CaCl2, 1.8; HEPES, 5; pH 7.4. Drugs were applied by bath perfusion. Using oocytes expressing different subunit combinations of NMDA receptor, NMDA currents were activated by co-application of glutamate (100 μm) and glycine (1-100 μm). Inhibitory potency of the novel antagonists was assessed on responses elicited by fixed concentrations of glutamate and glycine, by measuring reductions in current induced by progressively increasing concentrations of antagonist. Concentration-inhibition curves were fit with equation 1.
(§6) I/Icontrol =1/(1+([antagonist]/10^-pIC50)^n) Eq. 1
(§7) in which Icontrol is the current evoked by agonists alone, pIC50 =-log IC50, IC50 is the concentration of antagonist that produces half maximal inhibition, and n is the slope factor. (De Lean et al., Am. J. Physiol. 235:E97-102 (1978)). […]

Test [2] deals with T2, NMDA receptor subunits 1A/2B (Rattus norvegicus, UniProt P35439+Q00960).
T2 construct: expressed in transfected cells; host or cells: Xenopus laevis oocytes (cRNA injection; clones from Dr. P. H. Seeburg)
The test is described as follows: Electrophysiological assay at NMDA receptor subunits expressed in Xenopus oocytes, 1A/2B. The procedure: as §1, §2, §3, §4, §5, §6, §7

Test [3] has as its target T3, NMDA receptor subunits 1A/2C (Rattus norvegicus, UniProt P35439+Q00961).
T3 construct: expressed in transfected cells; host or cells: Xenopus laevis oocytes (cRNA injection; clones from Dr. P. H. Seeburg)
The test is described as follows: Electrophysiological assay at NMDA receptor subunits expressed in Xenopus oocytes, 1A/2C. As to the method: as §1, §2, §3, §4, §5, §6, §7

The mark [4] stands for this setting: Xenopus oocytes, glutamate 100 μm and glycine 1-100 μm, read-out: Subunits IC50, 1A/2B.
[5] abbreviates: Xenopus oocytes, glutamate 100 μm and glycine 1-100 μm, read-out: Subunits IC50, 1A/2C.

T3 sequence (Q00961 20-1237, other chains not shown): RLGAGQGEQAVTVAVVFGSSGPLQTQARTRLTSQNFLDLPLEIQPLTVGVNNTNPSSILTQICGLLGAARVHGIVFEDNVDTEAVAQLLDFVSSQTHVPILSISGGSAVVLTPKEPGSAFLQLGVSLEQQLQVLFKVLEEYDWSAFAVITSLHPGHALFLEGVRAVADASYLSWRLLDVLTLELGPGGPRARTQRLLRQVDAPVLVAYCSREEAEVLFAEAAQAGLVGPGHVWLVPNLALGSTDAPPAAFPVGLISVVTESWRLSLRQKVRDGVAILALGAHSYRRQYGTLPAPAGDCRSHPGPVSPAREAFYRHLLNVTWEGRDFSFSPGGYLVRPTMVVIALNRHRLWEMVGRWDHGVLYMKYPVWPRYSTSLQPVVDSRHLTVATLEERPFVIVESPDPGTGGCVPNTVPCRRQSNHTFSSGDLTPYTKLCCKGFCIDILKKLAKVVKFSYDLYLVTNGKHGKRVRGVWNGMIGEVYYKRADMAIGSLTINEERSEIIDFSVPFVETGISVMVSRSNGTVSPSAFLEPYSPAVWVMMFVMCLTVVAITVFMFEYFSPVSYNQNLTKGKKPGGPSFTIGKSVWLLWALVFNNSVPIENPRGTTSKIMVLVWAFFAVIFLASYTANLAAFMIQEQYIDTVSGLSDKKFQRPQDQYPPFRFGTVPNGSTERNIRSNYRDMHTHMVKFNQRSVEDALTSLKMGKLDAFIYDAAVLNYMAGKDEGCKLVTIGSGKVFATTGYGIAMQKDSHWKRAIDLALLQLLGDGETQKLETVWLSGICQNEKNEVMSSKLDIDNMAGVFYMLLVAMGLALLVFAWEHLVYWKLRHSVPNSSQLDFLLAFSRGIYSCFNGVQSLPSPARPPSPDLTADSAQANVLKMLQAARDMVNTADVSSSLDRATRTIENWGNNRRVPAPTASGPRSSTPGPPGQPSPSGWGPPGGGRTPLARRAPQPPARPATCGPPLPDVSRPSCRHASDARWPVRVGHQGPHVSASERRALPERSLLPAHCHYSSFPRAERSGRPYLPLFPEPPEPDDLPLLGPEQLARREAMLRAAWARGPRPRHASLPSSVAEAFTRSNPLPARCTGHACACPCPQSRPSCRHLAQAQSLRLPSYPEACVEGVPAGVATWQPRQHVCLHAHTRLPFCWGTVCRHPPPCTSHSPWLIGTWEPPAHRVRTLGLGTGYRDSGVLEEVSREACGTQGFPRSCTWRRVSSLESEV
T2 sequence (Q00960 27-1482, other chains not shown): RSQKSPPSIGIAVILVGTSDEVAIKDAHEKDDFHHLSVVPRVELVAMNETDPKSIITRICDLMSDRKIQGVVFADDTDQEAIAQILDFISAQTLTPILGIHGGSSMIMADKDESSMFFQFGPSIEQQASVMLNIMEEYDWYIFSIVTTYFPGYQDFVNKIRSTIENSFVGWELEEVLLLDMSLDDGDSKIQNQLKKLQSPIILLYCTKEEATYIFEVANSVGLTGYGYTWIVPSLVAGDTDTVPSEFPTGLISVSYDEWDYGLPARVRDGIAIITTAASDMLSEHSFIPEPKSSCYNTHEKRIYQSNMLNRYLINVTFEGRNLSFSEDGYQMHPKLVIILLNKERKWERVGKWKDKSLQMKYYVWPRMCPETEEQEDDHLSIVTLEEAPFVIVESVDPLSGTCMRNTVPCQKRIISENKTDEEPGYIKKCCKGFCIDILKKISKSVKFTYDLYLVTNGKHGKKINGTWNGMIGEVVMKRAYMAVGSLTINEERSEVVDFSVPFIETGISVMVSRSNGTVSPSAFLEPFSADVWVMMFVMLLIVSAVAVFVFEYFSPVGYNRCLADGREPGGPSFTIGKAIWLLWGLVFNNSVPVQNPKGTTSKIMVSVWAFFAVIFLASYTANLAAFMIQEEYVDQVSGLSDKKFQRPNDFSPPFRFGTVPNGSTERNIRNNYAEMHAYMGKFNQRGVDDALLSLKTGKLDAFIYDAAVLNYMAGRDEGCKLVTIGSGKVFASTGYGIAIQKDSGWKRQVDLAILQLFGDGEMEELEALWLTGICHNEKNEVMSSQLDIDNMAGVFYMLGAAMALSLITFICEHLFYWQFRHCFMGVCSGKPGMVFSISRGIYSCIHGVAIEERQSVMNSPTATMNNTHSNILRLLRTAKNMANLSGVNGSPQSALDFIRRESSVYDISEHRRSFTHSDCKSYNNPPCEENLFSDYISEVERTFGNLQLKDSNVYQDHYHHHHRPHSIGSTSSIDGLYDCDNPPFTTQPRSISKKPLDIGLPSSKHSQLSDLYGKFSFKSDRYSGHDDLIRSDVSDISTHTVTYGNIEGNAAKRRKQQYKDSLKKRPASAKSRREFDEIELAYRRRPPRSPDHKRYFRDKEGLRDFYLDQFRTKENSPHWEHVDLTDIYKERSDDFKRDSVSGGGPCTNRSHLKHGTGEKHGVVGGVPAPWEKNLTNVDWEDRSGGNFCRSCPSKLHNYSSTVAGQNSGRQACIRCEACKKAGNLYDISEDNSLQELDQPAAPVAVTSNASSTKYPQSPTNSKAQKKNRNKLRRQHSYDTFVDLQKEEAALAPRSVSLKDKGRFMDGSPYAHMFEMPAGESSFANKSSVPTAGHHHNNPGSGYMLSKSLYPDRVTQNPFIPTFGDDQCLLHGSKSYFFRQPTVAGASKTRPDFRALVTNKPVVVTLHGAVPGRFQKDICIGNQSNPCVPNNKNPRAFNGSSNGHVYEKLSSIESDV
T1 sequence (Q00959 20-1464 limits assumed, other chains not shown): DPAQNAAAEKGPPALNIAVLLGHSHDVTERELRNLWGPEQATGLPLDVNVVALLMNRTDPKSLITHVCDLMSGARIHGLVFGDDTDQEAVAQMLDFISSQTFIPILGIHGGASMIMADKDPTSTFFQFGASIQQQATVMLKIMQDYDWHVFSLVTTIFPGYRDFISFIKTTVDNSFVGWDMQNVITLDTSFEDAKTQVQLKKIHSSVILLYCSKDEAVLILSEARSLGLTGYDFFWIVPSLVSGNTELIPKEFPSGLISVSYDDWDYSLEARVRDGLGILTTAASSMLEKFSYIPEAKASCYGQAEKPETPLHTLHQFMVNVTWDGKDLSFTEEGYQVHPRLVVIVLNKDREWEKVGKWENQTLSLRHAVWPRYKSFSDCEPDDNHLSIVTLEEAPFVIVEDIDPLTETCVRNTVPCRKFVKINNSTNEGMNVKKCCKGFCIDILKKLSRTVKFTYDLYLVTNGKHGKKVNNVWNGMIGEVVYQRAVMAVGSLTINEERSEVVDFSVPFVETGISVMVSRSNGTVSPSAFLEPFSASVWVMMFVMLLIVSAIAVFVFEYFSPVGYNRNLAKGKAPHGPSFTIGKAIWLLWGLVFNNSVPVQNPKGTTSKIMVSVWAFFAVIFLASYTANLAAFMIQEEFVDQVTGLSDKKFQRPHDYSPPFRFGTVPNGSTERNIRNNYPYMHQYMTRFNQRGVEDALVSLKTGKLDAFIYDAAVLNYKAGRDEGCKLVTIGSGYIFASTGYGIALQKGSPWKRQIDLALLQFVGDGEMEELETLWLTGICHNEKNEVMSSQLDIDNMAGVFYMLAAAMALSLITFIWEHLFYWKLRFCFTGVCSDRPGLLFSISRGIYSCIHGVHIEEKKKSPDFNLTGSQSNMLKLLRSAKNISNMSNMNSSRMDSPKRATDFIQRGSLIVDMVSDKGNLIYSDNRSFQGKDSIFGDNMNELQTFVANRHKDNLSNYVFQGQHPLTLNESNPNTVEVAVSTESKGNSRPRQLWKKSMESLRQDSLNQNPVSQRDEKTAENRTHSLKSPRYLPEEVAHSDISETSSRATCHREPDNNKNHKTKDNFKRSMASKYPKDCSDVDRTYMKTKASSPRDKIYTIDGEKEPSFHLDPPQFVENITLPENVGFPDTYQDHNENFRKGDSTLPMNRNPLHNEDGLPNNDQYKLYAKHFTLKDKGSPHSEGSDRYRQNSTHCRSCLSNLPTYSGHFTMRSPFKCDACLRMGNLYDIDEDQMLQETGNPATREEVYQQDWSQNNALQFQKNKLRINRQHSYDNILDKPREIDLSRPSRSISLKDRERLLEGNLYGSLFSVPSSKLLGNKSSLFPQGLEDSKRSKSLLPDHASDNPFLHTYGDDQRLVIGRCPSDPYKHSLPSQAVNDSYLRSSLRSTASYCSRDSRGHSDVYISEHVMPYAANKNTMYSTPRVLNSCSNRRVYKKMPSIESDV

In the case of `c1ccc(CC2CCN(CCOc3ccc4c(c3)OCO4)CC2)cc1` [Ex. 148, 1-[2-(3,4-Methylenedioxyphenoxy)ethyl]-4-benzylpiperidine hydrochloride], the IC50 is 105 µM in test [1], 3.8 µM in test [2] (setting [4]) and 135 µM in test [3] (setting [5]).
In the case of `Nc1c(OCCN2CCC(Cc3ccccc3)CC2)cccc1[N+](=O)[O-]` [Ex. 52, 4-Benzyl-1-[2-(2-amino-3-nitrophenoxy)ethyl]piperidine], the IC50 in test [1] was 60 µM; in test [2] (setting [4]) it was 9.5 µM; in test [3] (setting [5]) it was greater than 100 µM.
For `OCCc1cccc(OCCN2CCC(Cc3ccc(Cl)cc3)CC2)c1` [Ex. 29, 4-(4-Chlorobenzyl)-1-(2-(3-(2-hydroxyethyl)phenoxy)ethyl)piperidine], the IC50 is 0.5 µM in test [2] (setting [4]) and greater than 100 µM in test [3] (setting [5]).
Turning to `Fc1ccc(OCCN2CCC(Cc3ccc4c(c3)CCCC4)CC2)cc1` [Ex. 140, 1-(2-(4-Fluorophenoxy)ethyl)-4-((5,6,7,8-tetrahydro-2-naphthyl)methyl)piperidine hydrochloride], the IC50 in test [1] was determined as 80 µM; in test [2] (setting [4]), 28 µM.
`COc1cccc(OCCN2CCC(Cc3ccccc3)CC2)c1` [Ex. 69, 4-Benzyl-1-[2-(3-methoxyphenoxy)ethyl]piperidine]: the values for the IC50 in test [1], in test [2] (setting [4]) and in test [3] (setting [5]) were 20 µM, 0.43 µM and greater than 100 µM, respectively.
As to `Oc1ccc(OCCN2CCC(Cc3ccc4ccccc4c3)CC2)cc1` [Ex. 141, 1-(2-(4-Hydroxyphenoxy)ethyl)-4-((2-naphthyl)methyl)piperidine hydrochloride], the IC50 in test [2] (setting [4]) was 0.1 µM; in test [3] (setting [5]) it was 90 µM.
`O=c1[nH]c2ccc(OCCN3CCC(Cc4ccc(Cl)cc4)CC3)cc2[nH]1` [Ex. 80, 4-(4-Chlorobenzyl)-1-[2-(2-oxobenzimidazol-5-oxy)ethyl]piperidine]: the values for the IC50 in test [1], in test [2] (setting [4]) and in test [3] (setting [5]) were 16 µM, 0.025 µM and 70 µM, respectively.
As to `ClCCN1CCC(Cc2ccccc2)CC1` [Ex. 49, 4-Benzyl-1-(2-chloroethyl)piperidine], the IC50 is 5 µM in test [2] and greater than 100 µM in test [3].
As for `O=[N+]([O-])c1ccc(OCCN2CCC(Cc3ccccc3)CC2)cc1` [Ex. 12, 4-Benzyl-1-(2-(4-nitrophenoxy)ethyl)piperidine hydrobromide], the values for the IC50 in test [2] (setting [4]) and in test [3] (setting [5]) were 6 µM and greater than 100 µM, respectively.
With `Clc1ccc(CC2CCN(CCOc3ccc(Cl)cc3)CC2)cc1` [Ex. 26, 4-(4-Chlorobenzyl)-1-(2-(4-chlorophenoxyethyl)piperidine hydrochloride], the IC50 in test [2] (setting [4]) was 12 µM; in test [3] (setting [5]), greater than 100 µM.
For `O=[N+]([O-])c1ccccc1OCCN1CCC(Cc2ccccc2)CC1` [Ex. 60, 4-Benzyl-1-[2-(2-nitrophenoxy)ethyl]piperidine] the same measures were 6 µM and greater than 100 µM.
In the case of `c1ccc(CC2CCN(CCOc3ncnc4ccccc34)CC2)cc1` [Ex. 66], the IC50 was 10 µM in test [2] (setting [4]) and greater than 100 µM in test [3] (setting [5]).
With `Cc1nc2cc(OCCN3CCC(Cc4ccccc4)CC3)ccc2[nH]1` [Ex. 71C, 4-Benzyl-1-[2-(2-methylbenzimidazol-5-oxy)ethyl]piperidine], the IC50 is 8 µM in test [2] (setting [4]) and greater than 100 µM in test [3] (setting [5]).
On to `Oc1ccccc1OCCN1CCC(Cc2ccc(F)cc2)CC1` [Ex. 158, 4-(4-Fluorobenzyl)-1-[2-(2-hydroxyphenoxy)ethyl]piperidine hydrochloride], for which the IC50 in test [2] (setting [4]) was found to be 0.3 µM; in test [3] (setting [5]), 190 µM.
Take `Fc1ccc(CC2CCN(CCOc3ccc(Cl)cc3)CC2)cc1` [Ex. 34, 4-(4-Fluorobenzyl)-1-(2-(4-chlorophenoxy)ethyl)piperidine hydrochloride]: the IC50 is 15 µM in test [2] (setting [4]) and greater than 100 µM in test [3] (setting [5]).
As for `Cn1c(=O)[nH]c2ccc(OCCN3CCC(Cc4ccccc4)CC3)cc21` [Ex. 193, 4-Benzyl-1-(2-(3-methyl-2-oxobenzamidazol-5-oxy)ethyl)piperidine], the IC50 in test [2] (setting [4]) is 0.2 µM; in test [3] (setting [5]), greater than 300 µM.
Consider `Clc1ccc(OCCN2CCC(Cc3ccccc3)CC2)cc1` [Ex. 11, 4-Benzyl-1-(2-(4-chlorophenoxy)ethyl)piperidine hydrochloride], for which the IC50 in test [2] (setting [4]) is 10 µM; in test [3] (setting [5]), greater than 100 µM.
Consider `N#Cc1ccc(OCCN2CCC(Cc3ccccc3)CC2)cc1` [Ex. 14, 4-Benzyl-1-(2-(4-cyanophenoxy)ethyl)piperidine], for which the results for the IC50 in test [2] (setting [4]) and in test [3] (setting [5]) were 3 µM and greater than 100 µM, respectively.
Turning to `CCOC(=O)Cc1cccc(OCCN2CCC(Cc3ccccc3)CC2)c1` [Ex. 17, 4-Benzyl-1-(2-(3-(ethoxycarbonylmethyl)phenoxy)ethyl)piperidine], the IC50 was 3 µM in test [2] (setting [4]) and greater than 100 µM in test [3] (setting [5]).
Consider `OC1CN(CCCOc2ccccc2)CCC1c1cccc(C(F)(F)F)c1` (stereo not drawn) [Ex. 46, 3-Hydroxy-1-(3-phenoxypropyl)-4-(3-trifluoromethylphenyl)piperidine hydrochloride], for which the IC50 in test [2] (setting [4]) is 1.5 µM; in test [3] (setting [5]), greater than 100 µM.
For `OC1(Cc2ccccc2)CCN(CCCc2ccccc2)CC1` [Ex. 91, 4-Benzyl-4-hydroxy-1-(3-phenylpropyl)piperidine hydrochloride], the IC50 in test [2] (setting [4]) was 22 µM; in test [3] (setting [5]) it was greater than 100 µM.
Take `Fc1ccc(NC2CCN(CCOc3ccc(F)cc3)CC2)cc1` [Ex. 39, 1-(2-(4-Fluorophenoxy)ethyl)-4-(N-(4-fluoroanilino)piperidine hydrochloride]: the IC50 in test [2] (setting [4]) was 60 µM; in test [3] (setting [5]), greater than 100 µM.
For `c1ccc(CCCN2CCC(Cc3ccccc3)CC2)cc1` [Ex. 84, 4-Benzyl-1-(3-phenylpropyl)piperidine hydrochloride] the same measures were 2.2 µM and greater than 100 µM.
In the case of `CC(=O)Nc1ccc(OCCN2CCC(Cc3ccccc3)CC2)cc1NC(C)=O` [Ex. 71A, 4-Benzyl-1-[2-(3,4-bisacetamidophenoxy)ethyl]piperidine], the IC50 in test [2] (setting [4]) is 20 µM; in test [3] (setting [5]), greater than 100 µM.
For `OC1(Cc2ccccc2)CCN(CCCOc2ccccc2)CC1` [Ex. 48, 4-Benzyl-4-hydroxy-1-(3-phenoxypropyl)piperidine], the IC50 was 22 µM in test [2] (setting [4]) and greater than 100 µM in test [3] (setting [5]).
Turning to `COc1ccccc1OCCN1CCC(Cc2ccccc2)CC1` [Ex. 68, 4-Benzyl-1-[2-(2-methoxyphenoxy)ethyl]piperidine], the values for the IC50 in test [2] (setting [4]) and in test [3] (setting [5]) were 5 µM and greater than 100 µM, respectively.
As to `COc1ccc(CC2CCN(CCOc3ccc(F)cc3)CC2)cc1` [Ex. 35, 1-(2-(4-Fluorophenoxy)ethyl)-4-(4-methoxybenzyl)piperidine hydrochloride], the values for the IC50 in test [2] (setting [4]) and in test [3] (setting [5]) were 4 µM and greater than 100 µM, respectively.
For `Oc1ccc(OCCN2CCC(O)(Cc3ccccc3)CC2)cc1` [Ex. 164, 4-Benzyl-4-hydroxy-1-[2-(4-hydroxyphenoxy)ethyl]piperidine hydrochloride] the same measures were 0.12 µM and greater than 300 µM.
